# Several values for one entry are separate records, joined by “and”; a condition that tells them apart may be missing. Equal values may be shown once.
# Test system: Jurkat E6.1 cells
# Experiment: intracellular ROS, ROS-red staining and flow cytometry, Jurkat E6.1
# Type: cell-based, human
# Parameters: ROS Negative Cells / ROS Negative Cells (Figure S9 a) / ROS Negative Cells (Figure S9c): unit not given here
# Settings: for ROS Negative Cells (Figure S9 a) / ROS Positive Cells (Figure S9 a): replicates; for ROS Negative Cells (Figure S9 a) / ROS Positive Cells (Figure S9 a) / ROS Negative Cells / ROS Positive Cells: listed as AVX420; for ROS Negative Cells (Figure S9c) / ROS Positive Cells (Figure S9c): rep1, rep2
# Protocol: Data are the mean ± stdev of 3 biological replicates. […] Data are the mean ± stdev of 3 biological replicates.
# Rather, when combined with AVX420, exogenous AA augmented cell death (Fig. 6e). […] The response occurred within 1 h, peaked at 8–12 h, and preceded the loss of cell viability (Fig. S9a, b).
# After treatment, cells were stained with cellular ROS Assay Kit (Cat. No. ab186029; Abcam, Cambridge, United Kingdom) following the manufacturer’s instructions, and ROS-positive cells were quantified by flow cytometry using either the NovoCyte flow cytometer, and Novoexpress Software v1.5.0 from Agilent Technologies (Santa Clara, USA) or the CytoFLEX flow cytometer and CytExpert analysis software v 2.5 from Beckman Coulter (California, United States). An example showing the gating strategy used to assess ROS-Red staining is found in Fig. S9d.
smiles,measurement,setting,value
CCCCCCCOc1ccc(OCC(=O)c2nc(C(=O)OC)cs2)cc1 [GK420],ROS Negative Cells (Figure S9 a),1h,68 and 69 and 77 and 81
same,ROS Positive Cells (Figure S9 a),1h,31 and 23 and 19 and 32
same,ROS Negative Cells (Figure S9 a),2h,46 (2×) and 47 (2×) and 51 and 54 and 50 and 48
same,ROS Positive Cells (Figure S9 a),2h,53 (2×) and 49 and 46 and 50 and 54 (2×) and 52
same,ROS Negative Cells (Figure S9 a),4h,33 (2×) and 32 and 37 and 30 and 29 and 34 (2×)
same,ROS Positive Cells (Figure S9 a),4h,67 (2×) and 68 and 63 and 70 and 71 and 66 (2×)
same,ROS Negative Cells (Figure S9 a),8h,26 and 27
same,ROS Positive Cells (Figure S9 a),8h,73 and 74
same,ROS Negative Cells (Figure S9 a),12h,18 and 19 and 21 and 16
same,ROS Positive Cells (Figure S9 a),12h,81 and 79 and 84 and 82
same,ROS Negative Cells (Figure S9 a),16h,21 and 22 and 18 (2×) and 17 and 19
same,ROS Positive Cells (Figure S9 a),16h,78 and 82 (2×) and 83 and 81 and 79
same,ROS Negative Cells (Figure S9 a),20h,14 and 13 and 15
same,ROS Positive Cells (Figure S9 a),20h,87 and 85 and 86
same,ROS Negative Cells (Figure S9 a),24h,13 and 15 and 16
same,ROS Positive Cells (Figure S9 a),24h,85 and 84 and 87
same,ROS Negative Cells (Figure S9c),AVX420 0.5 µM + AA 20 µM,80 and 83
same,ROS Positive Cells (Figure S9c),AVX420 0.5 µM + AA 20 µM,20 and 17
same,ROS Negative Cells (Figure S9c),AVX420 0.5 µM + Lip 5 µM,98 and 99
same,ROS Positive Cells (Figure S9c),AVX420 0.5 µM + Lip 5 µM,2 and 1
same,ROS Negative Cells (Figure S9c),AVX420 0.5 µM,80 and 76
same,ROS Positive Cells (Figure S9c),AVX420 0.5 µM,20 and 24
same,ROS Negative Cells,"Jurkat E6.1, 0.25 µM",78 and 75 and 60 and 66
same,ROS Positive Cells,"Jurkat E6.1, 0.25 µM",22 and 25 and 40 and 34
same,ROS Negative Cells,"Jurkat E6.1, 0.5 µM",46 and 45 and 51
same,ROS Positive Cells,"Jurkat E6.1, 0.5 µM",54 and 55 and 49
same,ROS Negative Cells,"Jurkat E6.1, 1 µM",19 and 21 and 30 and 22
same,ROS Positive Cells,"Jurkat E6.1, 1 µM",81 and 79 and 70 and 78
same,ROS Positive Cells,"Jurkat E6.1, 2 µM",95 and 93 and 89 and 92
same,intracellular ROS (iROS),"Jurkat E6.1, 4 h",dose-dependent increase

# Source: PMC11696576, “Next generation thiazolyl ketone inhibitors of cytosolic phospholipase A2 α for targeted cancer therapy” (Nature Communications, 2025)
